Patent US20200378993A1, “MEDICAL USES OF APOLIPOPROTEIN A AND ACTIVATORS THEREOF” (FUNDACIÓN IMDEA ALIMENTACIÓN, priority 2017, published 2020)

Legend:
Format in all cases: cell-based, human
[1] = tested on: cholesterol flux; experiment: Cholesterol flux in treated cells; conditions: treatment with Rvx-208
Protocol: FIG. 7. A) Proliferation curve in a viability assay carried out by means of XCELLigence technology. Growth of DLD1 cells treated with DMSO as the drug carrier and with Rvx-208 (30 μM). The significant differences existing in the slope of the graph, and therefore in the growth dynamics of the treated cells are shown in the right panel (****p-value<0.0001). B) Migration and invasion assays. The method followed was the same as the one described in FIG. 2 (*p-value=0.0407; ****p-value<0.0001). C) Expression levels of proteins E-cadherin and Vimentin in the presence and absence of Rvx-208. Analysis performed by means of quantitative PCR. The relative expression levels normalized with respect to the untreated control are shown. D) ABCA1, ApoA1, caveolin-1, and α-tubulin immunodetection by means of Western blot. α-tubulin acts as load control. The results of the cells treated with Rvx-208 (30 μM) or with the DMSO carrier are shown. E) Cholesterol flux in cells treated with Rvx-208. The inventors were able to confirm said results based on the treatment of DLD1 cells expressing ABCA1 with RVX-208 under the conditions already described in detail in Example 3. […] The levels of caveolin-1, a protein whose increased levels have been associated with increases in cell migration and invasion, were also analyzed in this experiment.

[2] = tested on: ABCA1 cholesterol transporter; experiment: ABCA1 messenger RNA and protein level after treatment; conditions: treatment with Rvx-208 (30 μM); Western blot
Protocol: FIG. 6. A) Proliferation curve in a viability assay carried out by means of XCELLigence technology. The results for the stable cell line overexpressing ABCA1 in the absence and presence of ApoA1 are shown. The cells were treated for 72 hours before the experiment with 40 μg/ml of ApoA1 and with a concentration of 20 μg/ml during acquisition. B) Migration and invasion assays. The method followed was the same as the one described in FIG. 1. (**p-value=0.003; ****p-value<0.0001). C) ABCA1 messenger RNA level (left panel) and ABCA1 protein level (right panel) in the presence and absence of treatment with ApoA1. Results are shown both for the control cells and for those cells overexpressing the transporter.
(§1) FIG. 7. A) Proliferation curve in a viability assay carried out by means of XCELLigence technology. Growth of DLD1 cells treated with DMSO as the drug carrier and with Rvx-208 (30 μM). The significant differences existing in the slope of the graph, and therefore in the growth dynamics of the treated cells are shown in the right panel (****p-value<0.0001). B) Migration and invasion assays. The method followed was the same as the one described in FIG. 2 (*p-value=0.0407; ****p-value<0.0001). C) Expression levels of proteins E-cadherin and Vimentin in the presence and absence of Rvx-208. Analysis performed by means of quantitative PCR. The relative expression levels normalized with respect to the untreated control are shown. D) ABCA1, ApoA1, caveolin-1, and α-tubulin immunodetection by means of Western blot. α-tubulin acts as load control. The results of the cells treated with Rvx-208 (30 μM) or with the DMSO carrier are shown. E) Cholesterol flux in cells treated with Rvx-208.
Cell viability and proliferation assays were carried out by means of XCELLigence technology (ACEA Biosciences, Inc.) following the manufacturer's indications. Migration and invasion assays were carried out in Corning® BioCoat™ Control plates (#354578) and Corning® BioCoat™ Matrigel plates (#354480), respectively, following the manufacturer's indications. For the rescue assays, the cells were treated for 72 hours with 30 μM apabetalone (RVX-208; Biovision). Antibodies: ABCA1 (Ab18180, Abcam. 1:500); caveolin-1 (Ab2910, Abcam. 1:1000); α-tubulin (T9026, Sigma 1:1000). The DLD1 cells correspond to a human colorectal cancer-derived adherent epithelial cell line (ATCC® CCL-221™). […]
(§2) The inventors were able to confirm said results based on the treatment of DLD1 cells expressing ABCA1 with RVX-208 under the conditions already described in detail in Example 3. […] The levels of caveolin-1, a protein whose increased levels have been associated with increases in cell migration and invasion, were also analyzed in this experiment.

[3] = tested on: caveolin-1; experiment: Caveolin-1 immunodetection by Western blot; conditions: RVX-208 (30 μM) versus DMSO carrier
Protocol: as §1, with “with Rvx-208. […]” for “with Rvx-208.”
as §2

**Q.** Which cholesterol flux ([1]; cells overexpressing ABCA1) does the source give for `COc1cc(OC)c2c(=O)[nH]c(-c3cc(C)c(OCCO)c(C)c3)nc2c1` [RVX-208, 2-(4-(2-hydroxyethoxy)-3,5-dimethylphenyl)-5,7-dimethoxyquinazolin-4(3H)-one] here?
**A.** Its cholesterol flux is “decreases significantly”.

**Q.** And the cholesterol flux ([1]; control cells)?
**A.** Its cholesterol flux is “decreases significantly”.

**Q.** What about the ABCA1 expression levels [2] of the same molecule?
**A.** Its ABCA1 expression levels is “reduces ABCA1 expression levels”.

**Q.** And the caveolin-1 protein levels [3]?
**A.** The caveolin-1 protein levels was “capable of reducing the levels of said protein”.
